Experimental data reported in ChEMBL document CHEMBL3045394, “Synthesis and antiinflammatory activity of certain benzothieno[3,2-d][1,2,4]triazolo[4,3-b] pyridazine derivatives” (2012).

Test system: Rattus norvegicus
Experiment: Anti-inflammatory activity inRattus norvegicus albino (rat) assessed as inhibition of carageenaan-induced paw edema at 10 mg/kg, po administered 1 hr prior to carrageenan-challenge measured after 4 hr relative to control

Structure (SMILES)	inhibition in vivo at 10 mg/kg
COc1ccccc1-c1nnc2c3c(sc4c(Br)cccc43)c(NN)nn12	78.7%
COc1ccccc1-c1nnc2c3c(sc4c(Br)cccc43)c(N3CCCCC3)nn12	8.4%
Oc1nn2cnnc2c2c1sc1c(Br)cccc12	9.7%
NNc1nn2cnnc2c2c1sc1c(Br)cccc12	52.8%
COc1ccc2c(c1)c(CC(=O)O)c(C)n2C(=O)c1ccc(Cl)cc1 [INDOMETHACIN]	50.5%
